Patent publication US7183319B2 (priority 2000, dated 2007)
Entries after “also recorded” stand apart in the source; their conditions may differ.

Columns and labels:
[1] = bovine
in vitro = conditions: bovine, serum
mushroom tyrosinase = type: biochemical; conditions: for oxidation rate (Rmax) by tyrosinase: pH 7.4

Structure (SMILES) | % decomposition over time, 1 hr [1] | % decomposition over time, 2 hrs [1] | % decomposition over time, 3 hrs [1] | quality as tyrosinase substrate / oxidation rate in words (mushroom tyrosinase) | also measured
O=C(NCCc1ccc(O)cc1)Oc1ccc(N(CCCl)CCCl)cc1 [1.1.1] | 7% | 44% | 61% | – | % decomposition over time, 4 hrs [1]: 74%; % decomposition over time, 6 hrs [1]: 100%; half-life (in vitro): ~2.5 h
COc1cccc2c1C(=O)c1c(O)c3c(c(O)c1C2=O)C[C@@](O)(C(C)=O)C[C@@H]3OC1CC(NC(=O)NCCc2ccc(O)cc2)C(O)C(C)O1 (stereo partly drawn) [1.1.5] | 0% | 0% | 0% | poor substrate | % decomposition over time, 4 hrs [1]: 0%; % decomposition over time, 6 hrs [1]: 0%; % decomposition over time, 12 hrs [1]: 0%; % decomposition over time, 24 hrs [1]: 0%; % decomposition over time, 48 hrs [1]: 0%
COC(=O)[C@H](Cc1ccc(O)cc1)NC(=S)Oc1ccc(N(CCCl)CCCl)cc1 [2.2.1] | 52% | 92% | 100% | – | half-life (in vitro): ~1.5 h
O=C(NCCc1ccc(O)cc1)Oc1ccc(N(CCCl)CCCl)cc1 [prodrug 9, {2′-(4″-Hydroxyphenyl)ethyl} carbamic acid p-(bis-2-chloroethylamino)phenyl ster] | – | – | – | good substrates | –
O=C(NCCc1ccc(O)c(O)c1)Oc1ccc(N(CCCl)CCCl)cc1 [prodrug 10, {2′-(3″,4″-Dihydroxyphenyl)-ethyl} carbamic acid p-(bis-2-chloroethylamino) phenyl ester] | – | – | – | good substrates | –
COC(=O)[C@@H](Cc1ccc(O)c(O)c1)NC(=O)Oc1ccc(N(CCCl)CCCl)cc1 [prodrug 16, (R)-[1′-Amino-2′-(3,4′-hydroxyphenyl)ethanonic acid methyl ester]-carbamic acid p-(bis-2-chloroethylamino) phenyl ester] | – | – | – | – | oxidation by tyrosinase within incubation period (mushroom tyrosinase): not oxidized by tryorinase; also recorded: not oxidised by tyrosinase
O=C(NCCc1ccc(O)cc1)Oc1ccc(N(CCCl)CCCl)cc1 [prodrug 21, {2′-(4″-Hydroxyphenyl)ethylamine) carbamic acid p-(bis-2-chloroethylamino) phenyl ester] | – | – | – | – | oxidation rate (Rmax) by tyrosinase (mushroom tyrosinase): 7.5 nmol/min
O=C(NCCSc1ccc(O)cc1)Oc1ccc(N(CCCl)CCCl)cc1 [prodrug 22] | – | – | – | – | oxidation rate (Rmax) by tyrosinase (mushroom tyrosinase): 7.5 nmol/min
